Common to all, as to type: functional, cell-based
One assay deals with HEK293. The assay is described as follows: Antiproliferative activity against HEK293 cells after 24 hrs by MTT assay. To be noted: Homo sapiens, HEK293, 24 h. On the technique in general: Formazan colour is commonly taken as a measure of viable cells.
Another assay concerns HepG2. As to the kind of experiment: Antiproliferative activity against human HepG2 cells after 24 hrs by MTT assay. The following applies: HepG2, 24 h.
In the next assay the test system is SH-SY5Y. The assay is described as follows: Antiproliferative activity against human SH-SY5Y cells after 24 hrs by MTT assay.
A further assay concerns Jurkat. The assay is described as follows: Antiproliferative activity against human Jurkat cells after 24 hrs by MTT assay.

Structures are written as SMILES. Some results are limits rather than exact numbers.

Turning to `Cc1[nH]c2ccc(Br)cc2c1CC(N)c1ccc(F)cc1` (configuration not stated), the IC50 (as a rule, the concentration at which inhibition is half-maximal) in the assay on HEK293 worked out at 23.2 µM; with HepG2, 9.58 µM; in the assay on SH-SY5Y, 22.9 µM; in the assay with Jurkat, 11.8 µM.

Turning to `Cc1ccc(C(N)Cc2c(C)[nH]c3ccc(Br)cc23)cc1` (configuration not stated), the 50% inhibitory concentration (IC50) is 23.2 µM with HEK293, 7.76 µM with HepG2, 21.9 µM in the assay with SH-SY5Y and 9.86 µM in the assay on Jurkat.

In the case of `Cc1[nH]c2ccc(-c3ccccc3)cc2c1CCNCc1ccccc1`, the IC50 in the assay on HEK293 was found to be 16.6 µM; in the assay on HepG2, 1.49 µM; with SH-SY5Y it was 5.71 µM; in the assay with Jurkat it was 1.45 µM.

`Cc1[nH]c2ccc(-c3ccccc3)cc2c1CC(N)c1ccccc1` (configuration not stated): the IC50 in the assay on HEK293 was found to be 10.1 µM; in the assay with HepG2, 1.82 µM; in the assay with SH-SY5Y, 12.5 µM; with Jurkat, 1.58 µM.

Take `Cc1[nH]c2ccc(F)cc2c1CC(N)c1ccccc1` (configuration not stated): the IC50 with HEK293 was found to be 73.5 µM; in the assay with HepG2, 15.8 µM; with SH-SY5Y, 59.1 µM; in the assay on Jurkat, 15.2 µM.

As to `Cc1c(CC(N)c2ccccc2)c2cc(F)ccc2n1Cc1ccccc1` (configuration not stated), the IC50 was 16.7 µM in the assay with HEK293, 13.1 µM in the assay on HepG2, 15 µM with SH-SY5Y and 14 µM with Jurkat.

For the molecule `Cc1[nH]c2ccc(F)cc2c1CC(NCc1ccccc1)c1ccccc1` (configuration not stated), the IC50 was 65.2 µM in the assay on HEK293, 19.4 µM in the assay on HepG2, 20.2 µM in the assay with SH-SY5Y and 13.8 µM in the assay with Jurkat.

Take `Cc1[nH]c2ccc(Br)cc2c1CC(N)c1ccc(Cl)cc1` (configuration not stated): the IC50 is 18.4 µM in the assay on HEK293, 8.43 µM in the assay with HepG2, 18.6 µM with SH-SY5Y and 7.5 µM in the assay on Jurkat.

As for `COc1cc(CNCCc2c(C)[nH]c3ccc(F)cc23)cc2c1OCO2`, the IC50 came out at 17.7 µM in the assay on HEK293, 16.4 µM with HepG2, 12.5 µM in the assay with SH-SY5Y and 13.9 µM in the assay with Jurkat.

Consider `Cc1c(CC(N)c2ccccc2)c2cc(-c3ccccc3)ccc2n1Cc1ccccc1` (configuration not stated), for which the 50% inhibitory concentration (IC50) is 16.3 µM in the assay with HEK293, 1.46 µM in the assay on HepG2, 11.9 µM in the assay with SH-SY5Y and 1.9 µM in the assay on Jurkat.

With `Cc1[nH]c2ccccc2c1CC(N)c1ccccc1` (configuration not stated), the IC50 in the assay on HEK293 was determined as 109 µM; in the assay with HepG2, 16.7 µM; with SH-SY5Y it was 117 µM; in the assay on Jurkat, 15.5 µM.

Turning to `COc1ccc(C(N)Cc2c(C)[nH]c3ccc(Br)cc23)cc1` (configuration not stated), the IC50 in the assay on HEK293 was determined as 18.7 µM; in the assay on HepG2, 7.12 µM; with SH-SY5Y it was 17.8 µM; with Jurkat, 8.14 µM.

With `Cc1[nH]c2ccc(Br)cc2c1C[C@H](N)c1ccccc1`, the IC50 came to 34.8 µM with HEK293, 10.8 µM in the assay on HepG2, 25.2 µM in the assay with SH-SY5Y and 13.8 µM in the assay with Jurkat.

`Cc1c(CCN)c2cc(-c3ccccc3)ccc2n1Cc1ccccc1`: the IC50 in the assay on HEK293 is 15.4 µM; in the assay on HepG2 it was 1.9 µM; with SH-SY5Y, 12.2 µM; in the assay with Jurkat, 3.82 µM.

For the molecule `Cc1ccc2[nH]c(C)c(CC(N)c3ccccc3)c2c1` (configuration not stated), the IC50 with HEK293 was 94 µM; in the assay on HepG2 it was 17.1 µM; in the assay on SH-SY5Y, 46.1 µM; in the assay with Jurkat, 13.2 µM.

With `Cc1[nH]c2ccc(-c3ccccc3)cc2c1CC(NCc1ccccc1)c1ccccc1` (configuration not stated), the IC50 was determined as 20.1 µM in the assay with HEK293, 45.5 µM in the assay on HepG2, 20.1 µM with SH-SY5Y and 8.88 µM in the assay with Jurkat.

`Cc1[nH]c2ccc(F)cc2c1CCNCc1ccccc1`: the IC50 with HEK293 was 21.4 µM; with HepG2, 14.7 µM; in the assay with SH-SY5Y, 25 µM; with Jurkat, 12.9 µM.

In the case of `Cc1[nH]c2ccc(F)cc2c1CCN`, the IC50 with HEK293, with HepG2, in the assay with SH-SY5Y and with Jurkat was over 100 µM each time.

On to `COc1cc(CNCCc2c(C)[nH]c3ccc(-c4ccccc4)cc23)cc2c1OCO2`, for which the IC50 in the assay on HEK293 is 8.27 µM; in the assay on HepG2 it was 1.37 µM; with SH-SY5Y, 9.07 µM; in the assay with Jurkat, 1.51 µM.

On to `Cc1[nH]c2ccc(Br)cc2c1CC(N)c1ccccc1` (configuration not stated), for which the IC50 with HEK293 turned out to be 39.4 µM; in the assay with HepG2, 14 µM; with SH-SY5Y, 42.7 µM; in the assay with Jurkat, 20.4 µM.

For `Cc1[nH]c2ccc(Br)cc2c1CC(N)c1cc(Cl)cc(Cl)c1` (configuration not stated), the IC50 in the assay with HEK293 came to 30.9 µM; in the assay with HepG2, 14.8 µM; in the assay on SH-SY5Y it was 27.6 µM; in the assay on Jurkat, 9.55 µM.

In the case of `COc1cc(CNC(Cc2c(C)[nH]c3ccc(F)cc23)c2ccccc2)cc2c1OCO2` (configuration not stated), the IC50 in the assay on HEK293 came to 54.9 µM; in the assay on HepG2, 15.6 µM; with SH-SY5Y, 20 µM; with Jurkat, 14.5 µM.

Consider `Cc1c(CCN)c2cc(F)ccc2n1Cc1ccccc1`, for which the IC50 in the assay with HEK293 is 17.2 µM; with HepG2, 19.7 µM; in the assay on SH-SY5Y, 13.1 µM; in the assay on Jurkat, 13.5 µM.

These data come from ChEMBL document CHEMBL4251610, “Branching tryptamines as a tool to tune their antiproliferative activity” (Eur J Med Chem, 2018).
